Data reported in paper PMC3222680 (PLoS ONE, 2011).
Residue numbers refer to the chain shown, from its start.

How the values were obtained:
Type in all cases: cell-based
αV25′A β-αWT GlyR = molecular target: T1, αV25′A β-αWT GlyR (Homo sapiens, UniProt P23415+P48167, V305A)
T1 construct: The α R218-Q219 and β R242-Q243 are also the joining sites for chimeras constructed between the ECD and TMD; expressed in transfected cells; host or cells: HEK293 (ATCC)
T1 sequence (P23415 29-449 isoform P23415-2 V305A): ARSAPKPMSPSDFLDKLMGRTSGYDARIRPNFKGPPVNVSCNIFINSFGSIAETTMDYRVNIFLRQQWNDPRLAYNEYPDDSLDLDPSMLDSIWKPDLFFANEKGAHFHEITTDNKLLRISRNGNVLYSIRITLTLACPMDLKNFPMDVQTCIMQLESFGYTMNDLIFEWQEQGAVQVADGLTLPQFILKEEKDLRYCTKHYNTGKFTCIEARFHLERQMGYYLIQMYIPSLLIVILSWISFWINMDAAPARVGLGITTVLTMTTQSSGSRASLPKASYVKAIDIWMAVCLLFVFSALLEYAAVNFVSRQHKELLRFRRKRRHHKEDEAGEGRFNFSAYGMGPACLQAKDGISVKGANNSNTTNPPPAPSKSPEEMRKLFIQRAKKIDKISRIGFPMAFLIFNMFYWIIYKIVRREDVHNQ
T1 sequence (P48167+P23415 with tags, fused parts or gaps P48167:V266M/P48167:F268Y/P48167:M270L/P48167:M271I/P48167:G272Q/P48167:V273M/P48167:A275I/P48167:T277S/P48167:V282I/P48167:L286I/P48167:P292M/P48167:S295A/P48167:A296P/P48167:P300G): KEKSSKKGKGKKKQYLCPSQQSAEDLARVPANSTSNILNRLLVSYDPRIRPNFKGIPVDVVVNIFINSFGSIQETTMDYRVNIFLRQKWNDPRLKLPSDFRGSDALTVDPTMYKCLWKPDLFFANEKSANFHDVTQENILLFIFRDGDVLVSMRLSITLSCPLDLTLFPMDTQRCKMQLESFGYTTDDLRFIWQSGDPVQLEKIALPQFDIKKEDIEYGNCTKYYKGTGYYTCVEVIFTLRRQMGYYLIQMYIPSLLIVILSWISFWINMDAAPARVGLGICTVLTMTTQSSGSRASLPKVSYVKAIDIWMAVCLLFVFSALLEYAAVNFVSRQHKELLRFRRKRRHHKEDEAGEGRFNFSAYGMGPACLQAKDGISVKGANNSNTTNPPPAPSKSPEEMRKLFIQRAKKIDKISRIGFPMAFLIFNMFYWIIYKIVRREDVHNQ
Method: (§1) The human GlyR α1 and β subunit cDNAs were subcloned into the pcDNA3.1zeo+ (Invitrogen) or pGEMHE [44] plasmid vectors for expression in HEK293 cells or Xenopus oocytes, respectively. Site-directed mutagenesis and chimera construction were performed using the QuickChange (Stratagene, La Jolla, CA, USA) mutagenesis and multiple-template-based sequential PCR protocols, respectively.
(§2) For the β-α chimeras used for determining the effect of hyperekplexia-mimicking mutations on α1 β GlyR channel function, the Thr at the M2 6′ position was replaced by a Cys. […] Through such a modification, picrotoxin resistance was used to distinguish the heteromeric α1 β-α GlyR from the homomeric α1 GlyR when the α1 and β-α subunits were co-expressed.
(§3) The effects of the hyperekplexia-mimicking mutations, K24′A, V25′A and Y27′A, were examined on GlyRs expressed in HEK293 cells (ATCC). Details of the HEK293 cell culture, GlyR expression and electrophysiological recording of the HEK293 cells are described elsewhere. Briefly, HEK293 cells were maintained in DMEM supplemented with 10% fetal bovine serum. Cells were transfected using a calcium phosphate precipitation protocol. When co-transfecting the α1 together with the β or any other chimera subunits, their respective cDNAs were combined in a ratio of 1∶10. In addition, the pEGFP-N1 (Clontech) was co-transfected to facilitate identifying the transfected cells. […] Cells were treated with external Ringer's solution and internal CsCl solution [30]. Cells were voltage-clamped at −40 mV. When the heteromeric GlyRs were expressed, the picrotoxin sensitivity was tested to confirm that the majority of receptors are heteromers, [30].
(§4) Results are expressed as mean±standard error of the mean of three or more independent experiments. […] Statistical significance was determined using the Student's t-test.

αWT β-αK24′A GlyR = molecular target: T2, αWT β-αK24′A GlyR (Homo sapiens, UniProt P23415+P48167, A275I/A296P/F268Y/G272Q/K304A/L286I/M270L/M271I/P292M/P300G/S295A/T277S/V266M/V273M/V282I)
T2 construct: The α R218-Q219 and β R242-Q243 are also the joining sites for chimeras constructed between the ECD and TMD; expressed in transfected cells; host or cells: HEK293 (ATCC)
T2 sequence (P23415 29-449 isoform P23415-2): T1 sequence (P23415 29-449 isoform P23415-2 V305A) with A277V
T2 sequence (P48167+P23415 with tags, fused parts or gaps P48167:V266M/P48167:F268Y/P48167:M270L/P48167:M271I/P48167:G272Q/P48167:V273M/P48167:A275I/P48167:T277S/P48167:V282I/P48167:L286I/P48167:P292M/P48167:S295A/P48167:A296P/P48167:P300G/P23415:K304A): T1 sequence (P48167+P23415 with tags, fused parts or gaps P48167:V266M/P48167:F268Y/P48167:M270L/P48167:M271I/P48167:G272Q/P48167:V273M/P48167:A275I/P48167:T277S/P48167:V282I/P48167:L286I/P48167:P292M/P48167:S295A/P48167:A296P/P48167:P300G) with K300A
Method: as §1, §2, §3, §4

αWT β-αWT GlyR = molecular target: T3, αWT β-αWT GlyR (Homo sapiens, UniProt P23415+P48167, A275I/A296P/F268Y/G272Q/L286I/M270L/M271I/P292M/P300G/S295A/T277S/V266M/V273M/V282I)
T3 construct: The α R218-Q219 and β R242-Q243 are also the joining sites for chimeras constructed between the ECD and TMD; expressed in transfected cells; host or cells: HEK293 (ATCC)
T3 sequence (P23415 29-449 isoform P23415-2): T1 sequence (P23415 29-449 isoform P23415-2 V305A) with A277V
T3 sequence (P48167+P23415 with tags, fused parts or gaps P48167:V266M/P48167:F268Y/P48167:M270L/P48167:M271I/P48167:G272Q/P48167:V273M/P48167:A275I/P48167:T277S/P48167:V282I/P48167:L286I/P48167:P292M/P48167:S295A/P48167:A296P/P48167:P300G): T1 sequence (P48167+P23415 with tags, fused parts or gaps P48167:V266M/P48167:F268Y/P48167:M270L/P48167:M271I/P48167:G272Q/P48167:V273M/P48167:A275I/P48167:T277S/P48167:V282I/P48167:L286I/P48167:P292M/P48167:S295A/P48167:A296P/P48167:P300G)
Method: as §1, §2, §3, §4

[1] = αV25′A β-αWT, HEK293, with glycine at EC50 of α1 homomer
[2] = αWT β-αK24′A, HEK293, with glycine at EC50 of α1 homomer
[3] = αWT β-αWT, HEK293, with glycine at EC50 of α1 homomer

Compound	10uM PTX inhibition (%) (αV25′A β-αWT GlyR; [1])	100uM PTX inhibition (%) (αV25′A β-αWT GlyR; [1])	10uM PTX inhibition (%) (αWT β-αK24′A GlyR; [2])	100uM PTX inhibition (%) (αWT β-αK24′A GlyR; [2])	10uM PTX inhibition (%) (αWT β-αWT GlyR; [3])	100uM PTX inhibition (%) (αWT β-αWT GlyR; [3])	Imax (αV25′A β-αWT GlyR) [nA]	nH (αV25′A β-αWT GlyR)	Imax (αWT β-αK24′A GlyR) [nA]	nH (αWT β-αK24′A GlyR)	Imax (αWT β-αWT GlyR) [nA]	nH (αWT β-αWT GlyR)
picrotoxin [PTX]	12.0±2.5	37±6	12.0±3.0	31±3	8.5±1.9	26±2						
NCC(=O)O [glycine]							8.9±1.5	1.7±0.3	5.9±1.7	1.5±0.3	8.0±2.3	2.4±0.4
